According to patent publication US5227391A, “Method for treatment of neurodegenerative diseases” (R. J. Reynolds Tobacco Company, priority 1992, dated 1993):

Biological target: high affinity nicotinic receptors
Conditions: read-out: Ki (nM), inhibition of L-[3H]nicotine binding; mouse brain membranes (cerebellum removed), 10 nM L-[3H]nicotine, 2 hr at 4° C.; Ki calculated from IC50 by the method of Cheng et al.
Method: Mice were killed by cervical dislocation. Brains were removed and placed on an ice-cold platform. […] Prior to each centrifugation step, the suspension was incubated at 37° C. for 5 min. to promote hydrolysis of endogenous acetylcholine. The final pellet was overlayered with buffer and stored at -70° C.
The binding of L-[^3 H]nicotine was measured using a 2 hr. incubation at 4° C. Incubations contained about 500 μg of protein and were conducted in 12 mm×75 mm polypropylene test tubes in a final incubation volume of 250 μl. The incubation buffer was Krebs-Ringers HEPES containing 200 mM TRIS buffer, pH 7.5. The binding reaction was terminated by filtration of the protein containing bound ligand onto glass fiber filters (Micro Filtration Systems) that had been soaked in buffer containing 0.5 percent polyethyleneimine. Filtration vacuum was -50 to -100 torr. Each filter was washed five times with 3 ml of ice-cold buffer. The filtration apparatus was cooled to 2° C. before use and was kept cold through the filtration process. […] The inhibition of L-[^3 H]nicotine binding by test compounds was determined by including one of eight different concentrations of the test compound in the incubation.

Molecule `CN1CCC[C@@H]1c1cccnc1` [(R)-(+)-nicotine] has a Ki of 113 nM.
